According to patent US20110015162A1, “15,16-Methylene-17-hydroxy-19-nor-21-carboxylic acid-steroid Y-lactone derivative, use thereof and medicinal products containing the derivative” (Bayer Schering Pharma Aktiengesellschaft, priority 2007, published 2011):
Like-named read-outs stand apart in the source and are kept apart here.

What was measured:
[1] = target: T1, progesterone receptor (Homo sapiens, UniProt P06401); experiment: Progesterone receptor binding test; details: for Progesterone receptor (PR) Competition factor: CF 1 = affinity of progesterone, CF >1 lower affinity, <1 higher affinity; for CF PR/CF MR: ratio of competition factors CF(PR) and CF(MR)
T1 construct: made in house; host or cells: Hi5 insect cells (cytosol)
T1 sequence (P06401 1-933): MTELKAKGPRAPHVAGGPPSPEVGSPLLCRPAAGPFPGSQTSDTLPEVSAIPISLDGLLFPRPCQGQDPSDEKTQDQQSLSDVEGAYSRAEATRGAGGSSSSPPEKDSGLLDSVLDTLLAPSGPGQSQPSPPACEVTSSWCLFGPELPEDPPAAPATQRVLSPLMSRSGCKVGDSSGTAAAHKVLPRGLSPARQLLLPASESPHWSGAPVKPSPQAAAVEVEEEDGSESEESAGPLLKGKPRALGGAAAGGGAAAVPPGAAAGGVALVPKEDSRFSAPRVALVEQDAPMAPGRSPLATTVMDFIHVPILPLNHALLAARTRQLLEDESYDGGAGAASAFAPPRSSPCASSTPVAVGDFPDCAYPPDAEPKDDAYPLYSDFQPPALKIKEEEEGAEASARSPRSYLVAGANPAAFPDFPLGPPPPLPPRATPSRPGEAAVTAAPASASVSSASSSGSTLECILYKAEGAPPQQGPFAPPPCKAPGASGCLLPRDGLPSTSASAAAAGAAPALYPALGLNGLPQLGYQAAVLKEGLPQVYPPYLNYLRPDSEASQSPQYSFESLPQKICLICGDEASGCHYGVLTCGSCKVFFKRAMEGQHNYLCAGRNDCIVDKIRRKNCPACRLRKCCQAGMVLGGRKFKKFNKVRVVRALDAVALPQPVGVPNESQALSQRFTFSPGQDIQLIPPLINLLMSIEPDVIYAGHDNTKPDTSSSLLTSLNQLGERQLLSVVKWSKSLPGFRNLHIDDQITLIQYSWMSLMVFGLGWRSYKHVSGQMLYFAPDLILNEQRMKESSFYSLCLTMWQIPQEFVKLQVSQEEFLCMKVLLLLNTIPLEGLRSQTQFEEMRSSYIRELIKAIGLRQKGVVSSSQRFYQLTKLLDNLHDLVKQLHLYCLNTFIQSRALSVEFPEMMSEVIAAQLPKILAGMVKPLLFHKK
Method: 1. Progesterone Receptor Binding Test:
(§1) Using cytosol from progesterone receptor-expressing insect cells (Hi5), competitive binding to the progesterone receptor was determined from the ability to displace ^3H-progesterone as reference substance from the receptor.

[2] = target: T2, mineralocorticoid receptor (Homo sapiens, UniProt P08235); experiment: Mineralocorticoid receptor binding test; design: made in house; host or cells: Hi5 insect cells (cytosol); details: reference substance 3H-aldosterone, cytosol from MR-expressing insect cells (Hi5)
T2 sequence (P08235 1-984): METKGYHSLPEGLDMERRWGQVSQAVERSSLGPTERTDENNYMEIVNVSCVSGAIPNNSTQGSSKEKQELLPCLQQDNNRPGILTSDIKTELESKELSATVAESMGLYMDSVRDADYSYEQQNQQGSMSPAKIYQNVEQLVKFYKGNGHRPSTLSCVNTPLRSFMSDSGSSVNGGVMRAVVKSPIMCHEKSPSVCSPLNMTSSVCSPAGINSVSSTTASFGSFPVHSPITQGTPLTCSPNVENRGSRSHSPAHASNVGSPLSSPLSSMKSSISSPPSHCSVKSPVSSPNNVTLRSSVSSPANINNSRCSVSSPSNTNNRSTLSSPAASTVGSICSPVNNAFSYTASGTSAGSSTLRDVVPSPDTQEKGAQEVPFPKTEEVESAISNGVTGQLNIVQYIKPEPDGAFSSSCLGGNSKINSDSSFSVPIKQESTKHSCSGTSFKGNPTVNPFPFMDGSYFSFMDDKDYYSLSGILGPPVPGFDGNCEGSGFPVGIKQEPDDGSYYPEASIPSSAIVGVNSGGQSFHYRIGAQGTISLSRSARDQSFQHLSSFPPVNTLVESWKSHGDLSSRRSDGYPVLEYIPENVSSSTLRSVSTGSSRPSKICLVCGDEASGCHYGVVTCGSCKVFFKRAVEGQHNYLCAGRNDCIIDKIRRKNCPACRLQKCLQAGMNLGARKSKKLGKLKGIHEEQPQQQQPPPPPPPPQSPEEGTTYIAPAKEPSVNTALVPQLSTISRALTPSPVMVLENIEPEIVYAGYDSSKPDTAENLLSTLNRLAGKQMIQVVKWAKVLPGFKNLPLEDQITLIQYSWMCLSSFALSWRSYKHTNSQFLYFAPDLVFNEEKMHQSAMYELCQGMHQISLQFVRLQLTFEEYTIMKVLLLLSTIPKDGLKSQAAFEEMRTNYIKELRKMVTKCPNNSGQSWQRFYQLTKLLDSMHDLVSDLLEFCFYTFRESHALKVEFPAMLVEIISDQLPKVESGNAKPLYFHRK
Method: as §1
2. Mineralocorticoid Receptor Binding Test:
The test was carried out as in 1, with the following modifications: cytosol from mineralocorticoid receptor-expressing insect cells (Hi5) was used, and the reference substance was ^3H-aldosterone.

[3] = displacement of 3H-progesterone, cytosol from PR-expressing insect cells (Hi5), read-out: Progesterone receptor (PR) IC50

## CC[C@]12CC[C@H]3[C@@H]([C@H]4C[C@H]4C4=CC(=O)CC[C@@H]43)[C@@H]1[C@@H]1C[C@@H]1[C@@]21C=CC(=O)O1 [Example 1, 6β,7β;15β,16β-Bismethylene-17β-hydroxy-18-methyl-19-nor-17α-pregna-4,20(Z)-dien-3-one-21-carboxylic acid γ-lactone]
[1]
  IC50: 41 nM
  Progesterone receptor (PR) Competition factor: 0.76
  CF PR/CF MR: 0.48
[2]
  Mineralocorticoid receptor (MR) Competition factor: 1.6

## CC[C@]12CC[C@H]3[C@@H]([C@@H]4C[C@@H]4C4=CC(=O)CC[C@@H]43)[C@@H]1[C@@H]1C[C@@H]1[C@@]21C=CC(=O)O1 [Example 2, 6α,7α;15β,16β-Bismethylene-17β-hydroxy-18-methyl-19-nor-17α-pregna-4,20(Z)-dien-3-one-21-carboxylic acid γ-lactone]
[1]
  IC50: 630 nM
  Progesterone receptor (PR) Competition factor: 24.37
  CF PR/CF MR: 5.54
[2]
  Mineralocorticoid receptor (MR) Competition factor: 4.4

## CC[C@]12CC[C@H]3[C@@H](C=CC4=CC(=O)CC[C@@H]43)[C@@H]1[C@@H]1C[C@@H]1[C@@]21C=CC(=O)O1 [Example 3, 17β-Hydroxy-18-methyl-15β,16β-methylene-19-nor-17α-pregna-4,6,20(Z)-trien-3-one-21-carboxylic acid γ-lactone]
[1]
  IC50: 72 nM
  Progesterone receptor (PR) Competition factor: 2.72
  CF PR/CF MR: 1.81
[2]
  Mineralocorticoid receptor (MR) Competition factor: 1.5

## CC[C@]12CC[C@H]3[C@H]([C@@H]1[C@@H]1C[C@@H]1[C@@]21C=CC(=O)O1)[C@H](C)CC1=CC(=O)CC[C@@H]13 [Example 4A, 7α,18-Bismethyl-17β-hydroxy-15β,16β-methylene-19-nor-17α-pregna-4,20(Z)-dien-3-one-21-carboxylic acid γ-lactone]
[1]
  IC50: 48 nM
  Progesterone receptor (PR) Competition factor: 2.66
  CF PR/CF MR: 4.43
[2]
  Mineralocorticoid receptor (MR) Competition factor: 0.6

## CC[C@@H]1CC2=CC(=O)CC[C@@H]2[C@H]2CC[C@@]3(CC)[C@@H]([C@@H]4C[C@@H]4[C@@]34C=CC(=O)O4)[C@H]12 [Example 5A, 17β-Hydroxy-7α-ethyl-18-methyl-15β,16β-methylene-19-nor-17α-pregna-4,20(Z)-dien-3-one-21-carboxylic acid γ-lactone]
[1]
  IC50: 300 nM
  Progesterone receptor (PR) Competition factor: 12.00
  CF PR/CF MR: 12.00
[2]
  Mineralocorticoid receptor (MR) Competition factor: 1.0

## C=C[C@@H]1CC2=CC(=O)CC[C@@H]2[C@H]2CC[C@@]3(CC)[C@@H]([C@@H]4C[C@@H]4[C@@]34C=CC(=O)O4)[C@@H]21 [Example 6A, 17β-Hydroxy-7α-vinyl-18-methyl-15β,16β-methylene-19-nor-17α-pregna-4,20(Z)-dien-3-one-21-carboxylic acid γ-lactone]
[1]
  IC50: 120 nM
  Progesterone receptor (PR) Competition factor: 4.85
  CF PR/CF MR: 3.23
[2]
  Mineralocorticoid receptor (MR) Competition factor: 1.5

## CC[C@]12CC[C@H]3[C@H]([C@@H]1[C@@H]1C[C@@H]1[C@@]21C=CC(=O)O1)[C@H](C1CC1)CC1=CC(=O)CC[C@@H]13 [Example 7A, 17β-Hydroxy-7α-cyclopropyl-18-methyl-15β,16β-methylene-19-nor-17α-pregna-4,20(Z)-dien-3-one-21-carboxylic acid γ-lactone]
[1]
  IC50: 380 nM
  Progesterone receptor (PR) Competition factor: 14.22
  CF PR/CF MR: 3.03
[2]
  Mineralocorticoid receptor (MR) Competition factor: 4.7

## CC[C@]12CC[C@H]3[C@@H]([C@H]4C[C@H]4C4=C(Cl)C(=O)CC[C@@H]43)[C@@H]1[C@@H]1C[C@@H]1[C@@]21C=CC(=O)O1 [Example 8, 6β,7β;15β,16β-Bismethylene-4-chloro-17β-hydroxy-18-methyl-19-nor-17α-pregna-4,20(Z)-dien-3-one-21-carboxylic acid γ-lactone]
[1]
  Progesterone receptor (PR) Competition factor: 31.12
  CF PR/CF MR: 1.07
[1]; [3]
  IC50: 740 nM
[2]
  Mineralocorticoid receptor (MR) Competition factor: 29.0

## CC[C@]12CC[C@H]3[C@@H](CCC4=CC(=O)CC[C@@H]43)[C@@H]1[C@@H]1C[C@@H]1[C@@]21C=CC(=O)O1 [Example 9, 17β-Hydroxy-18-methyl-15β,16β-methylene-19-nor-17α-pregna-4,20(Z) dien-3-one-21-carboxylic acid γ-lactone]
[1]
  IC50: 78.5 nM
  Progesterone receptor (PR) Competition factor: 1.65
  CF PR/CF MR: 1.50
[2]
  Mineralocorticoid receptor (MR) Competition factor: 1.1

## CC[C@]12CC[C@H]3[C@@H](C[C@@H](CO)C4=CC(=O)CC[C@@H]43)[C@@H]1[C@@H]1C[C@@H]1[C@@]21C=CC(=O)O1 [Example 10, 17β-Hydroxy-6β-hydroxymethylene-18-methyl-15β,16β-methylene-19-nor-17α-pregna-4,20(Z)-dien-3-one-21-carboxylic acid γ-lactone]
[1]
  Progesterone receptor (PR) Competition factor: 4000.00
  CF PR/CF MR: inactive
[2]
  Mineralocorticoid receptor (MR) Competition factor: 2.7

## C[C@]12CC[C@H]3[C@@H](CCC4=CC(=O)CC[C@@H]43)[C@@H]1[C@H]1C[C@H]1[C@@]21C=CC(=O)O1 [Example 12, 17β-Hydroxy-15α,16α-methylene-19-nor-17α-pregna-4,20(Z)-dien-3-one-21-carboxylic acid γ-lactone]
[1]
  IC50: 49 nM
  Progesterone receptor (PR) Competition factor: 1.50
  CF PR/CF MR: 0.52
[2]
  Mineralocorticoid receptor (MR) Competition factor: 2.9

## C[C@]12CC[C@H]3[C@@H](C=CC4=CC(=O)CC[C@@H]43)[C@@H]1[C@H]1C[C@H]1[C@@]21C=CC(=O)O1 [Example 13, 17β-Hydroxy-15α,16α-methylene-19-nor-17α-pregna-4,6,20(Z)-trien-3-one-21-carboxylic acid γ-lactone]
[1]
  Progesterone receptor (PR) Competition factor: 7.89
  CF PR/CF MR: 4.93
[1]; [3]
  IC50: 190 nM
[2]
  Mineralocorticoid receptor (MR) Competition factor: 1.6

## C[C@]12CC[C@H]3[C@@H](C[C@@H](CO)C4=CC(=O)CC[C@@H]43)[C@@H]1[C@@H]1C[C@@H]1[C@@]21C=CC(=O)O1 [Example 21, 17β-Hydroxy-6β-hydroxymethylene-15β,16β-methylene-19-nor-17α-pregna-4,20(Z)-dien-3-one-21-carboxylic acid γ-lactone]
[1]
  Progesterone receptor (PR) Competition factor: 159.27
[1]; [3]
  IC50: 4800 nM
